Results published in US20250114369A1, “COMPOUNDS AND METHODS FOR TREATMENT OF VIRAL INFECTIONS” (Gilead Sciences, Inc., priority 2023, published 2025).

Legend:
[1] = test system: Caco-2 cells (clone C2BBel); test: CACO-2 permeability; assay type: in vitro ADME; details: donor pH 6.5, receiver pH 7.4; for DM Caco2 A to B: forward (A to B); for DM Caco2 B to A: reverse (B to A)
Procedure: Pre-plated Caco-2 cells (clone C2BBel) were obtained from Sigma-Aldrich, Inc. (Atlanta, GA). Cell monolayers were grown to confluence on collagen-coated, microporous, polycarbonate membranes in 24-well transwell plates for 21 days. The permeability assay buffer in donor wells was Hanks' balanced salt solution (HBSS) containing 10 mM HEPES and 15 mM glucose at a pH of 6.5 containing 200 μM BNPP. The receiver wells used HBSS buffer containing 10 mM HEPES and 15 mM glucose at a pH of 7.4 and supplemented with 1% BSA. After an initial equilibration with transport buffer, TEER values were read to test membrane integrity. The experiment was started by the addition of buffers containing test compounds, 200 μl and 1000 μl in the apical and basolateral chamber, respectively. At 0- and 2-hour post dose, 10 μL was sampled from donor compartment and was immediately diluted in 190 μL of 20% methanol. At 1 and 2 hours post dose, 100 μl of solution was taken from the receiver compartments and was immediately diluted in 100 μl of 20% methanol. Removed buffer was replaced with fresh buffer and a correction was applied to all calculations for the removed material. Each compound was tested in 2 separate replicate wells for each condition. All samples were then extracted with 400 μl 100% acetonitrile with internal standard to precipitate protein. Cells were dosed on the apical or basolateral side to determine forward (A to B) and reverse (B to A) permeability. To test for non-specific binding and compound instability, the total amount of drug was quantitated at the end of the experiment and compared to the material present in the original dosing solution as a percent recovery. Formation of the parent compound (GS-441524; Reference Compound A) was monitored in assay wells dosed with the prodrug. Samples were analyzed by LC-MS/MS.

[2] = in vitro; assay type: cell-based; details: human
Procedure: Cytotoxicity of the compounds was determined in uninfected cells using the cell viability reagent in a similar fashion as described before for other cell types (Cihlar et al., Antimicrob Agents Chemother. 2008, 52(2):655-65). HEp-2 (1.5×10^3 cells/well) and MT-4 (2×10^3 cells/well) cells were plated in 384-well plates and incubated with the appropriate medium containing 3-fold serially diluted compound ranging from 15 nM to 100,000 nM. Cells were cultured for 4-5 days at 37° C. Following the incubation, the cells were allowed to equilibrate to 25° C., and cell viability was determined by adding Cell-Titer Glo viability reagent. The mixture was incubated for 10 min, and the luminescence signal was quantified using an Envision plate reader. Untreated cell and cells treated at 2 μM puromycin (Sigma, St. Louis, MO) serve as […] cell viability control, respectively. The percent of cell viability was calculated for each tested compound concentration relative to the 0% and 100% controls and the CC50 value was determined by non-linear regression as a compound concentration reducing the cell viability by […].

[3] = test system: Respiratory syncytial virus recombinant with luciferase (RSV-Luc5); test: microbe, parasite or virus in culture; assay type: cell-based; details: human respiratory syncytial virus, NHBE, 72 h, read-out: RSV NHBE EC50 (nM)
[4] = test system: SARS Coronavirus 2 recombinant with NanoLuc (SARS-CoV2-NLuc); test: organism not typed; assay type: cell-based; details: 48 h
[5] = in vitro; assay type: in vitro ADME; details: human, s9, pH 7.4
Procedure: Duplicate aliquots of test compound or positive control substrate (GS-7340) were added to PMSF-free Intestinal S9 fractions diluted with 100 mM phosphate buffered saline, pH 7.4, to obtain a protein concentration of 1.0 mg/mL. The S9 metabolic reactions were initiated by the addition of the substrates to the S9 reaction mixture to a final concentration of 2 μM. At 0, 10, 20, 30, 60 and 120 min, 25 μL aliquots of the reaction mixture were transferred to plates containing 225 μl of IS/Q solution. After quenching, the plates were centrifuged at 3000×g for 30 minutes, and 150 μL aliquots of each supernatant were diluted with 150 μL water. Aliquots (10 μL) of the diluted supernatant were analyzed on a Thermo Q-Exactive mass spectrometer as described below. Quantification of test compounds and controls was performed by analyte/internal standard peak area ratio (PAR) values measured on a Thermo Q-Exactive mass spectrometer coupled to a Dionex UltiMate 3000 HPLC with a Leap Technologies HTC PAL autosampler. The column used was a Thermo Hypersil GOLD (1.9 μm particle size, 2.1×50 mm). Mobile phase A consisted of […] formic acid in water. Mobile phase B consisted of 0.1% (v/v) formic acid in acetonitrile. Elution of analytes was achieved by a series of linear gradients of acetonitrile in water containing 0.1% (v/v) formic acid. The mass spectrometer was calibrated on a weekly basis and mass tolerance of 5 ppm was used.

[6] = assay type: in vitro ADME; details: 2 μM
Procedure: Duplicate aliquots of plasma were warmed to 37° C. and the metabolic reactions initiated by the addition of test compound (6 μL of 0.1 mM DMSO stock) or plasma stability standard (GS-7340) to obtain a final substrate concentration of 2 μM. At 0.05, 0.5, 1, 2, 3 and 4 hr, 25 μL aliquots of the reaction mixture were transferred to plates containing 225 μl of IS/Q quenching solution. After quenching, the plates were centrifuged at 3000×g for 30 minutes, and 150 μL supernatant was diluted with 150 μL water. Aliquots (10 μL) of the diluted supernatant were analyzed on a Thermo Q-Exactive mass spectrometer as described below. Quantification of test compounds and controls was performed by analyte/internal standard peak area ratio (PAR) values measured on a Thermo Q-Exactive mass spectrometer coupled to a Dionex UltiMate 3000 HPLC with a Leap Technologies HTC PAL autosampler. The column used was a Thermo Hypersil GOLD (1.9 μm particle size, 2.1×50 mm). Mobile phase A consisted of […] formic acid in water. Mobile phase B consisted of 0.1% (v/v) formic acid in acetonitrile. Elution of analytes was achieved by a series of linear gradients of acetonitrile in water containing 0.1% (v/v) formic acid. The mass spectrometer was calibrated on a weekly basis and mass tolerance of 5 ppm was used.

[7] = in vitro; assay type: in vitro ADME; details: human, s9, pH 7.4; remark: listed apart in the source
Procedure: Duplicate aliquots of test compound or positive control substrate (GS-7340) were added to S9 stock diluted with 100 mM potassium phosphate buffer, pH 7.4, to obtain a protein concentration of 2.4 mg/mL. The S9 metabolic reactions were initiated by the addition of the substrates to the S9 reaction mixture to a final concentration of 2 μM. At 2, 12, 25, 45, 65 and 90 min, 25 μL aliquots of the reaction mixture were transferred to plates containing 225 μl of IS/Q solution. After quenching, the plates were centrifuged at 3000×g for 30 minutes, and 150 μL aliquots of each supernatant were diluted with 150 μL water. Aliquots (10 μL) of the diluted supernatant were analyzed on a Thermo Q-Exactive mass spectrometer as described below. Quantification of test compounds and controls was performed by analyte/internal standard peak area ratio (PAR) values measured on a Thermo Q-Exactive mass spectrometer coupled to a Dionex UltiMate 3000 HPLC with a Leap Technologies HTC PAL autosampler. The column used was a Thermo Hypersil GOLD (1.9 μm particle size, 2.1×50 mm). Mobile phase A consisted of […] formic acid in water. Mobile phase B consisted of 0.1% (v/v) formic acid in acetonitrile. Elution of analytes was achieved by a series of linear gradients of acetonitrile in water containing 0.1% (v/v) formic acid. The mass spectrometer was calibrated on a weekly basis and mass tolerance of 5 ppm was used.
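For CC50 in this document: uninfected MT-4 cells over 4-5 days by CellTiter-Glo.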

SMILES	DM Caco2 A to B [1]	DM Caco2 B to A [1]	CC50 [2] [µM]	EC50 [3] [nM]	EC50 [4] [µM]	half-life at 2 μM [5] [min]	STA Human Plasma 37 [6]	half-life at 2 μM [7] [min]
N#C[C@@]1(c2ccc3c(N)ncnn23)O[C@H](COC(=O)N2C(=O)OC[C@@H]2Cc2ccccc2)[C@@H](O)[C@H]1O [Compound 4, [(2R,3S,4R,5R)-5-(4-aminopyrrolo[2,1-f][1,2,4]triazin-7-yl)-5-cyano-3,4-dihydroxy-tetrahydrofuran-2-yl]methyl (4S)-4-benzyl-2-oxo-oxazolidine-3-carboxylate]	0.12	0.94	> 50	> 50000	> 50	≥ 789	253.23	–
CC(C)[C@H](NC(=O)OC[C@H]1O[C@@](C#N)(c2ccc3c(N)ncnn23)[C@H](O)[C@@H]1O)C(=O)O [Compound 6, ((((2R,3S,4R,5R)-5-(4-aminopyrrolo[2,1-f][1,2,4]triazin-7-yl)-5-cyano-3,4-dihydroxytetrahydrofuran-2-yl)methoxy)carbonyl)-L-valine]	0.05	0.07	> 50	> 50000	> 50	≥ 792	1584	–
N#C[C@@]1(c2ccc3c(N)ncnn23)O[C@H](COC(=O)N2CCS(=O)(=O)CC2)[C@@H](O)[C@H]1O [Compound 11, [(2R,3S,4R,5R)-5-(4-aminopyrrolo[2,1-f][1,2,4]triazin-7-yl)-5-cyano-3,4-dihydroxy-tetrahydrofuran-2-yl]methyl 1,1-dioxo-1,4-thiazinane-4-carboxylate]	0.08	0.11	> 50	> 50000	> 50	779	1584	–
N#C[C@@]1(c2ccc3c(N)ncnn23)O[C@H](COC(=O)N2CCCO2)[C@@H](O)[C@H]1O [Compound 12, [(2R,3S,4R,5R)-5-(4-aminopyrrolo[2,1-f][1,2,4]triazin-7-yl)-5-cyano-3,4-dihydroxy-tetrahydrofuran-2-yl]methyl isoxazolidine-2-carboxylate]	0.08	0.36	> 50	35300	> 50	85	938.47	–
CCCSC(=O)OC[C@H]1O[C@@](C#N)(c2ccc3c(N)ncnn23)[C@H](O)[C@@H]1O [Compound 14, [(2R,3S,4R,5R)-5-(4-aminopyrrolo[2,1-f][1,2,4]triazin-7-yl)-5-cyano-3,4-dihydroxy-tetrahydrofuran-2-yl]methyl propylsulfanylformate]	2.06	9.1	> 50	2620	11.7	5.12	495.99	–
CCSC(=O)OC[C@H]1O[C@@](C#N)(c2ccc3c(N)ncnn23)[C@H](O)[C@@H]1O [Compound 15, [(2R,3S,4R,5R)-5-(4-aminopyrrolo[2,1-f][1,2,4]triazin-7-yl)-5-cyano-3,4-dihydroxy-tetrahydrofuran-2-yl]methyl ethylsulfanylformate]	1.51	7.08	> 50	5650	19.7	16.4	451.78	–
N#C[C@@]1(c2ccc3c(N)ncnn23)O[C@H](COC(=O)SC2CCCC2)[C@@H](O)[C@H]1O [Compound 16, [(2R,3S,4R,5R)-5-(4-aminopyrrolo[2,1-f][1,2,4]triazin-7-yl)-5-cyano-3,4-dihydroxy-tetrahydrofuran-2-yl]methyl cyclopentylsulfanylformate]	–	–	49.9	2810	8.75	3.4	–	6.2
CC(C)(C)SC(=O)OC[C@H]1O[C@@](C#N)(c2ccc3c(N)ncnn23)[C@H](O)[C@@H]1O [Compound 17, [(2R,3S,4R,5R)-5-(4-aminopyrrolo[2,1-f][1,2,4]triazin-7-yl)-5-cyano-3,4-dihydroxy-tetrahydrofuran-2-yl]methyl tert-butylsulfanylformate]	3.05	15.63	49.8	8110	≥ 50	44.5	1343.5	–
CC(=O)O[C@H]1[C@@H](OC(C)=O)[C@](C#N)(c2ccc3c(N)ncnn23)O[C@@H]1COC(=O)NC(C)C [Compound 18, [(2R,3R,4R,5R)-4-acetoxy-5-(4-aminopyrrolo[2,1-f][1,2,4]triazin-7-yl)-5-cyano-2-(isopropylcarbamoyloxymethyl)tetrahydrofuran-3-yl]acetate]	0.8	6.91	> 50	> 50000	> 50	0.581	16.014	–
